Experimental findings from ChEMBL document CHEMBL1155108, “SAR, pharmacokinetics, safety, and efficacy of glucokinase activating 2-(4-sulfonylphenyl)-N-thiazol-2-ylacetamides: discovery of PSN-GK1” (J Med Chem, 2008) are described below.

As a reminder, the EC50 is the concentration that produces a half-maximal response. The half-life is the time in which the quantity being followed falls by half. By solubility is commonly meant the dissolved amount per volume that the medium holds. A higher solubility goes with a readily soluble substance. For orientation: Cmax means the highest concentration seen after dosing. For orientation: AUC(0-t) means the area under the concentration-time curve up to a stated or last time point. High values mean high exposure, low ones low exposure. Broadly, the clearance is a measure of how efficiently the substance is removed, as volume per time. A word on the AUC(0-inf): it is the area under the concentration-time curve extrapolated to infinity. Higher therefore signals high exposure. The term Tmax denotes the time from dosing to the highest level.

Structures are written as SMILES. Converted amounts (≈) assume the structure as drawn. The source made the active and inactive calls. The calls are words filed in the database; no cut-off is given here. Some results are limits rather than exact numbers.

The target of one series is T1, Hexokinase-4 (Homo sapiens, UniProt P35557).
T1 sequence (P35557 whole entry): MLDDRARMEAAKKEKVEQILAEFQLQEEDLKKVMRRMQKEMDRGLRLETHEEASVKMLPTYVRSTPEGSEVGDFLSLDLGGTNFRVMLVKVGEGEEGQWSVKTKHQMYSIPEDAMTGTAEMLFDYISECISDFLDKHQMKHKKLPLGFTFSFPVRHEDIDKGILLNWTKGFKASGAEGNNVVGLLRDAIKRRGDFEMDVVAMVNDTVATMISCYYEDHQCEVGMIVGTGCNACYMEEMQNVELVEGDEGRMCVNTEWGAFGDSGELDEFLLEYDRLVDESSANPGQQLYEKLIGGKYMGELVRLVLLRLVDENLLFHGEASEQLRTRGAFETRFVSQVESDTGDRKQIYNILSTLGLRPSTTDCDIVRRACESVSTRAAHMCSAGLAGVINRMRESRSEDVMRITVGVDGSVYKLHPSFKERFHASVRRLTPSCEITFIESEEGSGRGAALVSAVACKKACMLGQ
Description: Activation of GST fused human liver glucokinase assessed as generation of NADPH by G6PDH coupled assay.

Series [1] in a line: Metabolic stability in mouse liver microsomes. It is filed as ADME, Microsome.
The nature of series [2]: Aqueous solubility at pH 6.5 buffer. Format: physicochemical.
Series [3] in a line: Plasma concentration in C57B1/6 mouse at 10 mg/kg, po after 0.5 hrs. Format: ADME, organism-based. Also noted: dose 10 mg/kg, route oral.
Series [4] deals with Rattus norvegicus. Description: Acute toxicity in rat at >=100 mg/kg, po. Format: organism-based. The conditions noted are these: in vivo.
Series [5] relates to Rattus norvegicus. The series can be described thus: Toxicity in Sprague-Dawley rat at 250 mg/kg, po. Format: organism-based. Details: dose 250 mg/kg, route oral. The conditions noted are these: in vivo.
A short description of series [6]: Cmax in Sprague-Dawley rat at 250 mg/kg, po. Format: ADME, organism-based. Details: dose 250 mg/kg, route oral. The conditions noted are these: in vivo.
The nature of series [7]: AUC (0 to 24 hrs) in Sprague-Dawley rat at 250 mg/kg, po. It is filed as ADME, organism-based. Also noted: time < 24 hr, dose 250 mg/kg, route oral. The note with it: plasma.
The nature of series [8]: Clearance in Sprague-Dawley rat at 1 mg/5 mL/kg, iv in 40% DMSO. The note with it: in vivo, 1 mg/kg. It is filed as ADME, organism-based.
Series [9] in a line: Volume of distribution at steady state in Sprague-Dawley rat at 1 mg/5 mL/kg, iv in 40% DMSO. Format: ADME, organism-based. The conditions noted are these: in vivo, 1 mg/kg, read-out: Vdss.
Series [10] can be described thus: Half life in Sprague-Dawley rat at 1 mg/5 mL/kg, iv in 40% DMSO. It is filed as ADME, organism-based. The conditions noted are these: in vivo, 1 mg/kg.
The nature of series [11]: AUC (0 to infinity) in Sprague-Dawley rat at 1 mg/5 mL/kg, iv in 40% DMSO. It is filed as ADME, organism-based. Details: dose 5 mL/kg, time infinity, route intravenous. The conditions noted are these: plasma, 1 mg/kg.
Series [12] can be described thus: Cmax in Sprague-Dawley rat at 5 mg/10 mL/kg, po in 10% aqueous gelucire 44/14. It is filed as ADME, organism-based. The note with it: in vivo, 5 mg/kg.
A short description of series [13]: Tmax in Sprague-Dawley rat at 5 mg/10 mL/kg, po in 10% aqueous gelucire 44/14. It is filed as ADME, organism-based. The conditions noted are these: in vivo, 5 mg/kg.
The nature of series [14]: Half life in Sprague-Dawley rat at 5 mg/10 mL/kg, po in 10% aqueous gelucire 44/14. Format: ADME, organism-based. The conditions noted are these: in vivo, 5 mg/kg.
Series [15] is described as follows: AUC (0 to infinity) in Sprague-Dawley rat at 5 mg/10 mL/kg, po in 10% aqueous gelucire 44/14. Also noted: dose 10 mL/kg, time infinity, route oral. Format: ADME, organism-based. The conditions noted are these: plasma, 5 mg/kg.
Series [16] in a line: Oral bioavailability in Sprague-Dawley rat at 5 mg/10 mL/kg in 10% aqueous gelucire 44/14. It is filed as ADME, organism-based. The note with it: in vivo, 5 mg/kg.
Series [17] deals with Rattus norvegicus. Description: Reduction in blood glucose level in fasted Sprague-Dawley rat at 10 mg/kg, po for 360 mins. Format: functional, organism-based. Details: dose 10 mg/kg.
Series [18] in a line: Plasma concentration in C57B1/6 mouse at 5 mg/kg, po after 0.5 hrs. Details: dose 5 mg/kg, route oral. It is filed as ADME, organism-based.

`CS(=O)(=O)c1ccc([C@@H](CC2CCOCC2)C(=O)Nc2nccs2)cc1`: the EC50 on Hexokinase-4 amounted to 3470 nM. Besides, the half-life in series [1] was greater than 3.33 h. In series [2], this molecule yielded a solubility of 410 µg/mL (≈ 1040 µM). Also, the concentration at 0.5 h in [3] was found to be 5150 ng/mL. Moreover, the Activity entry with Rattus norvegicus [4] is reported as “Toxic”.

In the case of `CS(=O)(=O)c1ccc(C(CC2CCOCC2)C(=O)Nc2nccs2)cc1` (stereo not drawn), the EC50 on Hexokinase-4 turned out to be 8930 nM. Further, the half-life in series [1] was greater than 3.33 h. In series [2], this molecule displayed a solubility of 97 µg/mL (≈ 246 µM).

With `O=C(Nc1ncc(F)s1)[C@H](CC1CCOCC1)c1ccc(S(=O)(=O)C2CCCC2)cc1`, the EC50 at Hexokinase-4 stood at 70 nM. In series [1], this molecule displayed a half-life of 0.267 h. The molecule also came in with a solubility in [2] of 24 µg/mL (≈ 51.4 µM). For the same molecule, the concentration at 0.5 h in [3] was 168 ng/mL.

Turning to `CS(=O)(=O)c1ccc([C@H](CC2CCOCC2)C(=O)Nc2nccs2)cc1`, the EC50 on Hexokinase-4 is greater than 10000 nM.

On to `CS(=O)(=O)c1ccc(/C(=C\C2CCOCC2)C(=O)Nc2nccs2)cc1`, for which the EC50 on Hexokinase-4 came to 2300 nM. For the same molecule, in series [1], the half-life was greater than 3.33 h. The molecule further had a solubility in series [2] of 13 µg/mL (≈ 33.1 µM). Moreover, the concentration at 0.5 h in series [3] stood at 3680 ng/mL.

For `CS(=O)(=O)c1ccc([C@@H](CC2CCOCC2)C(=O)Nc2ncc(F)s2)cc1`, at Hexokinase-4, the EC50 was 1430 nM. Also, the half-life in series [1] stood at 2.08 h. Besides, the concentration in solution in series [2] (solubility) came to 298 µg/mL (≈ 722 µM). In series [3], this molecule showed a concentration at 0.5 h of 8280 ng/mL.

`O=C(Nc1nccs1)/C(=C/c1cccs1)c1ccccc1`: on Hexokinase-4, the EC50 was found to be 10800 nM.

With `O=C(Nc1ncc(F)s1)[C@H](CC1CCOCC1)c1ccc(S(=O)(=O)C2CC2)cc1`, the values for the half-life in [1], in series [10] and in series [14] were 1.5 h, 3.2 h and 3.4 h, respectively. Moreover, the solubility in series [2] was determined as 58 µg/mL (≈ 132 µM). Also, in series [3], the concentration at 0.5 h stood at 5010 ng/mL. Also, in the series with Rattus norvegicus [5], the Activity result is given as “Non-toxic”. Moreover, the Cmax in series [6] came out at 49200 ng/mL; in series [12] it was 1130 ng/mL. In series [7], this molecule showed an AUC(0-t) at 24 h of 898000 ng·h/mL. The same molecule returned a clearance in series [8] of 10 mL/min/kg. Also, the Vd in [9] was found to be 2.1 L/kg. In addition, the total exposure AUC(0-inf) in [11] came out at 1660 ng·h/mL; in series [15], 10700 ng·h/mL. The Tmax in series [13] was found to be 1 h. The bioavailability in series [16] stood at 129%. For the same molecule, the outcome in the series on Rattus norvegicus [17] was Active.

Consider `O=C(Nc1ncc(F)s1)[C@H](CC1CCOCC1)c1ccc(S(=O)(=O)C2CCC2)cc1`, for which, at Hexokinase-4, the EC50 worked out at 140 nM. In addition, the half-life in [1] was 0.45 h. Moreover, the concentration in solution in series [2] (solubility) came to 60 µg/mL (≈ 133 µM). The same molecule gave a concentration at 0.5 h in series [18] of 1180 ng/mL.

Consider `O=C(Nc1nccs1)[C@H](CC1CCOCC1)c1ccc(S(=O)(=O)C2CC2)cc1`, for which the EC50 on Hexokinase-4 was found to be 570 nM. In series [1], the half-life stood at 2.4 h. In addition, the solubility in series [2] stood at 147 µg/mL (≈ 350 µM). The molecule also displayed a concentration at 0.5 h in series [3] of 1860 ng/mL. The Activity entry in the series on Rattus norvegicus [4] is reported as “Toxic”.

On to `CS(=O)(=O)c1ccc(C(=Cc2cccs2)C(=O)Nc2nccs2)cc1`, for which the EC50 at Hexokinase-4 was determined as 560 nM.

Turning to `O=C(Nc1cnccn1)/C(=C/c1cccs1)c1ccccc1`, on Hexokinase-4, the EC50 came out at 26000 nM.

Regarding `Cc1cnc(NC(=O)[C@H](CC2CCOCC2)c2ccc(S(=O)(=O)C3CC3)cc2)s1`, the EC50 on Hexokinase-4 turned out to be 580 nM. In series [1], this molecule registered a half-life of 0.883 h. Besides, the solubility in series [2] was found to be 40 µg/mL (≈ 92 µM). Further, the concentration at 0.5 h in [3] was found to be 1640 ng/mL.
